Test results: patent US12275729B2 (Merck Sharp & Dohme LLC, priority 2017, dated 2025)

Legend:
IDO1 [1] = target: T1, IDO1 (Homo sapiens, UniProt P14902); assay: IDO1 Cellular Assay in HeLa Cells Stimulated with IFNγ; format: cell-based; settings: read-out: Hela IC50
IDO1 [2] = target: T1, IDO1; assay: IDO1 Human Whole Blood Assay; format: cell-based; parameters: Human whole blood was drawn in sodium heparin coated tubes from healthy internal donors; from tissue; host or cells: human whole blood from healthy donors, stimulated with LPS and IFNγ; settings: LPS and IFNγ stimulated
Method: IDO1 Human Whole Blood Assay
Compounds to be tested were serially diluted in ten 3-fold steps in DMSO starting from 10 mM. […] LPS and IFNγ was prepared in RPMI to a 10× of final conc. (1000 ng/mL), final concentration is 100 ng/mL.
Human whole blood was drawn in sodium heparin coated tubes from healthy internal donors. 240 μL of blood was transferred to each of the wells of a v-bottom 96 well plate. 30 μL of compound was transferred from intermediate dilution plate, and incubated for 15 min. 30 μL from stimulants was then transferred to blood and mixed thoroughly.
On day 2 isotope labeled standard of kynurenine and tryptophan was made in water at 1Ox concentration and 30 μL was added to the blood at […] final concentration. The assay plates were centrifuged at 300×G for 10 min with no brake to separate plasma from red blood cells. 60 μL of plasma samples was removed without disturbing red blood cells. Plasma was diluted with RPMI in 1:1 ratio and proteins were precipitated out with two volume of Acetonitrile. The plates were centrifuged at 4000×G for 60 min. 20 μL of supernatant was carefully transferred to a 384 well plate contain 40 μL of 0.1% formic acid in water and analyzed by LC/MS/MS.
LC/MS/MS analyses were performed using Thermo Fisher's LX4-TSQ Quantum Ultra system. This system consists of four Agilent binary high-performance liquid chromatography (HPLC) pumps and a TSQ Quantum Ultra triple quadrupole MS/MS instrument. For each sample, 5 μL were injected onto an Atlantis T3 column (2.1 mm×150 mm, […] particle size) from Waters. The mobile phase gradient pumped at 0.8 mL/min was used to elute the analytes from the column at 25° C. […] Mobile phase A consisted of 0.1% formic acid in water. Mobile phase B consisted of 0.1% of formic acid in acetonitrile. Data was acquired in positive mode using a HESI interface. The operational parameters for the TSQ Quantum Ultra instrument were a spray voltage of 4000 V, capillary temperature of 380° C., vaporizer temperature 400° C., shealth gas 60 arbitrary units, Aux gas 20 arbitrary units, tube lens 85 and collision gas 1.2 mTorr. […] The peak area was integrated by Xcalibur Quan software. The ratios between the kynurenine generated in the reaction and 2D6-Kynurenine spiked-in internal standard were used to generate percentage inhibition and IC50 values.

T1 sequence (P14902 whole entry): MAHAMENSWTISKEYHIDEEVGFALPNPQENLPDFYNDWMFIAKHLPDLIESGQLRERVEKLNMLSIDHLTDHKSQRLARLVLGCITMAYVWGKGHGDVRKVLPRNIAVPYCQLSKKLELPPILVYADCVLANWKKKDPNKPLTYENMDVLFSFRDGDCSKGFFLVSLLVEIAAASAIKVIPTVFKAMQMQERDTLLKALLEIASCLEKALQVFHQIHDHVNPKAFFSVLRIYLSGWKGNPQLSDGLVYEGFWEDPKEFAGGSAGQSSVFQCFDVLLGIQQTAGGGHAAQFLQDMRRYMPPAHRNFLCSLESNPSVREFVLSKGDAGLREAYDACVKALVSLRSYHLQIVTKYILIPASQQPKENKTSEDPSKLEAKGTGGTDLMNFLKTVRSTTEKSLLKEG

SMILES | IC50 (IDO1 [1]; about 48 hours) | IC50 (IDO1 [2]) | IC50 (IDO1 [1])
Cc1nccc(N2CCCc3nc(C4(C(=O)Nc5ccc(Cl)cc5)COC4)ccc32)n1 [Example 394, N-(4-chlorophenyl)-3-(5-(2-methylpyrimidin-4-yl)-5,6,7,8-tetrahydro-1,5-naphthyridin-2-yl)oxetane-3-carboxamide] | 1.93 nM | 7 nM | –
Cc1ccnc(C(=O)N2CCCc3nc(C4(C(=O)Nc5ccc(Cl)cc5)COC4)ccc32)n1 [Example 399, N-(4-chlorophenyl)-3-(5-(4-methylpyrimidine-2-carbonyl)-5,6,7,8-tetrahydro-1,5-naphthyridin-2-yl)oxetane-3-carboxamide] | 1.72 nM | 13 nM | –
CC(C(=O)Nc1ccc(F)cc1)c1ccc2c(c1)CCCN2Cc1cccc(Cl)c1 (single isomer, unassigned) [Example 225, 2-{1-[(3-chlorophenyl)methyl]-1,2,3,4-tetrahydroquinolin-6-yl}-N-(4-fluorophenyl)propanamide] | 4.7 nM | 149 nM | –
Cc1nccc(N2CCCc3nc(C4(C(=O)Nc5ccc(F)cc5)CC4(F)F)ccc32)n1 (single isomer, unassigned) [Example 421, 2,2-difluoro-N-(4-fluorophenyl)-1-(5-(2-methylpyrimidin-4-yl)-5,6,7,8-tetrahydro-1,5-naphthyridin-2-yl)cyclopropanecarboxamide] | – | 65 nM | 2.64 nM
O=C(N1CCCc2cc(C3(C(=O)Nc4ccc(F)cc4)CCC3)ccc21)C1(F)CC1 [Example 98, 1-[1-(1-fluorocyclopropane-1-carbonyl)-1,2,3,4-tetrahydroquinolin-6-yl]-N-(4-fluorophenyl)cyclobutane-1-carboxamide] | 3.3 nM | 361 nM | –
C[C@@H](C(=O)Nc1ccc(Cl)cc1)c1ccc2c(c1)CCCN2C(=O)c1cccc(Cl)c1 (single isomer, unassigned) [Example 57] | 2.3 nM | 51 nM | –
CC(NC(=O)c1ccc(F)cc1)c1ccc2c(n1)CCCN2c1ccn2nccc2n1 (stereo not drawn) [Example 368, 4-fluoro-N-(1-(5-(pyrazolo[1,5-a]pyrimidin-5-yl)-5,6,7,8-tetrahydro-1,5-naphthyridin-2-yl)ethyl)benzamide] | – | 16 nM | 18 nM
Cc1nccc(N2CCCc3nc(C4(NC(=O)c5ccc(Br)cc5)CC4)ccc32)n1 [Example 301, 4-bromo-N-(1-(5-(2-methylpyrimidin-4-yl)-5,6,7,8-tetrahydro-1,5-naphthyridin-2-yl)cyclopropyl)benzamide] | 1.69 nM | 21 nM | –
C[C@@H](C(=O)Nc1ccc(F)cc1)c1ccc2c(c1)CCCN2C(=O)c1cccc(Cl)c1 (single isomer, unassigned) [Example 53] | 2.2 nM | 45 nM | –
Cc1cncc(N2CCCc3nc(C4(NC(=O)c5ccc(Cl)cc5)CCC4)ccc32)c1 [Example 406, 4-chloro-N-(1-(5-(5-methylpyridin-3-yl)-5,6,7,8-tetrahydro-1,5-naphthyridin-2-yl)cyclobutyl)benzamide] | 3.18 nM | 2980 nM | –
Cc1nccc(N2CCCc3nc(C4(NC(=O)c5ccc(Cl)cc5)CC4)ccc32)n1 [Example 249, 4-chloro-N-(1-(5-(2-methylpyrimidin-4-yl)-5,6,7,8-tetrahydro-1,5-naphthyridin-2-yl)cyclopropyl)benzamide] | 0.7 nM | 63 nM | –
Cc1ccnc(C(=O)N2CCCc3nc(C(C)NC(=O)c4ccc(Cl)cc4)ccc32)n1 (stereo not drawn) [Example 287, 4-chloro-N-(1-(5-(4-methylpyrimidine-2-carbonyl)-5,6,7,8-tetrahydro-1,5-naphthyridin-2-yl)ethyl)benzamide] | 1.8 nM | 6 nM | –
Cc1nccc(N2CCCc3nc(C4(NC(=O)c5ccc(Cl)nc5)CC4)ccc32)n1 [Example 300, 6-chloro-N-(1-(5-(2-methylpyrimidin-4-yl)-5,6,7,8-tetrahydro-1,5-naphthyridin-2-yl)cyclopropyl)nicotinamide] | 1.9 nM | 63 nM | –
Cc1nccc(N2CCCc3nc(C(C)(C)C(=O)Nc4ccc(Cl)c(F)c4)ccc32)n1 [Example 391, N-(4-chloro-3-fluorophenyl)-2-methyl-2-(5-(2-methylpyrimidin-4-yl)-5,6,7,8-tetrahydro-1,5-naphthyridin-2-yl)propanamide] | 5.7 nM | 101 nM | –
COCCOC(=O)N1CCCc2nc(C(C)NC(=O)c3ccc(Cl)cc3)ccc21 (stereo not drawn) [Example 212, 2-methoxyethyl 6-{1-[(4-chlorobenzene-1-carbonyl)amino]ethyl}-3,4-dihydro-1,5-naphthyridine-1(2H)-carboxylate] | 3 nM | 35 nM | –
O=C(C1CC1)N1CCc2nc(C3(C(=O)Nc4ccc(F)cc4)CCC3)ccc21 [Example 268, 1-[1-(cyclopropanecarbonyl)-2,3-dihydro-1H-pyrrolo[3,2-b]pyridin-5-yl]-N-(4-fluorophenyl)cyclobutane-1-carboxamide] | 7.9 nM | 325 nM | –
Cc1cccc(N2CCCc3nc(C4(C(=O)Nc5ccc(Cl)cc5)CCC4)ccc32)n1 [Example 404, N-(4-chlorophenyl)-1-(5-(6-methylpyridin-2-yl)-5,6,7,8-tetrahydro-1,5-naphthyridin-2-yl)cyclobutane-1-carboxamide] | 3.3 nM | 20 nM | –
N#Cc1cccc(C(=O)N2CCCc3nc(C4(NC(=O)c5ccc(F)cc5)CC4)ccc32)c1 [Example 175, N-{1-[5-(3-cyanobenzene-1-carbonyl)-5,6,7,8-tetrahydro-1,5-naphthyridin-2-yl]cyclopropyl}-4-fluorobenzamide] | 4.9 nM | 19 nM | –
CC(C(=O)Nc1ccc(F)cc1)c1ccc2c(c1)CCCN2Cc1cccc(Cl)c1 (racemic) [Example 224, 2-{1-[(3-chlorophenyl)methyl]-1,2,3,4-tetrahydroquinolin-6-yl}-N-(4-fluorophenyl)propanamide] | 7.9 nM | 545 nM | –
CC(C(=O)Nc1ccc(Cl)cc1)c1ccc2c(c1)CCCN2C(=O)c1cccc(Cl)c1 (stereo not drawn) [Example 51, 2-[1-(3-chlorobenzene-1-carbonyl)-1,2,3,4-tetrahydroquinolin-6-yl]-N-(4-chlorophenyl)propanamide] | 2 nM | 96 nM | –
C[C@@H](NC(=O)c1ccc(F)cc1)c1ccc2c(n1)CCCN2C(=O)[C@H]1CCCO1 [Example 145, 4-fluoro-N-[(1R)-1-{5-[(2R)-oxolane-2-carbonyl]-5,6,7,8-tetrahydro-1,5-naphthyridin-2-yl}ethyl]benzamide] | 8 nM | 125 nM | –
O=C(NC1(c2ccc3c(n2)CCCN3c2ccnc(C3CC3)n2)CC1)c1ccc(F)cc1 [Example 307, 5-(2-cyclopropylpyrimidin-4-yl)-2-(1-(4-fluorobenzamido)cyclopropyl)-5,6,7,8-tetrahydro-1,5-naphthyridin-1-ium 2,2,2-trifluoroacetate] | 0.89 nM | 63 nM | –
O=C(N[C@H](c1ccc2c(n1)CCCN2C(=O)C1CC1)C(F)(F)F)c1ccc(F)cc1 [Example 424, (R)—N-(1-(5-(cyclopropanecarbonyl)-5,6,7,8-tetrahydro-1,5-naphthyridin-2-yl)-2,2,2-trifluoroethyl)-4-fluorobenzamide] | – | 143 nM | 44.8 nM
CC(NC(=O)c1ccc(Cl)cc1)c1ccc2c(n1)CCCN2C(=O)C1CC1 (single isomer, unassigned) [Example 125, 4-chloro-N-{1-[5-(cyclopropanecarbonyl)-5,6,7,8-tetrahydro-1,5-naphthyridin-2-yl]ethyl}benzamide] | 8.3 nM | 289 nM | –
Cc1nccc(N2CCCc3nc(C4(C(=O)Nc5ccc(F)cc5)COC4)ccc32)n1 [Example 395, N-(4-fluorophenyl)-3-(5-(2-methylpyrimidin-4-yl)-5,6,7,8-tetrahydro-1,5-naphthyridin-2-yl)oxetane-3-carboxamide] | 1.23 nM | 26 nM | –
C[C@H](NC(=O)c1ccc(Cl)cc1)c1ccc2c(n1)OCCN2C(=O)c1cccc(Cl)c1 (single isomer, unassigned) [Example 254, 4-chloro-N-(1-(1-(3-chlorobenzoyl)-2,3-dihydro-1H-pyrido[2,3-b][1,4]oxazin-6-yl)ethyl)benzamide] | 3.7 nM | 263 nM | –
CC(NC(=O)c1ccc(F)cc1)c1ccc2c(n1)CCCN2C(=O)OC(C)(C)C(F)(F)F (stereo not drawn) [Example 312] | – | 47 nM | 9.87 nM
